row,Structure (SMILES),melting point [°C]
1,"CCCS(=O)(=O)Oc1cc(Cl)nnc1Oc1c(C)cccc1C1CC1 [Compound No. 2051, 6-Chloro-3-(2-cyclopropyl-6-methylphenoxy)-4-pyridazinyl 1-propanesulfonate]",70.5 to 71.5
2,"Cc1cccc(C2CC2)c1Oc1nnc(Cl)cc1OS(=O)(=O)C(F)(F)F [Compound No. 2106, 6-Chloro-3-(2-cyclopropyl-6-methylphenoxy)-4-pyridazinyl trifluoromethanesulfonate]",64 to 67
3,"Cc1ccccc1Oc1nnc(Cl)cc1OS(=O)(=O)c1ccccc1 [Compound No. 2147, 6-Chloro-3-(2-methylphenoxy)-4-pyridazinyl benzenesulfonate]",91.5 to 92
4,"Cc1cccc(C2CC2)c1Oc1nnc(Cl)cc1OS(=O)(=O)c1ccccc1 [Compound No. 2176, 6-Chloro-3-(2-cyclopropyl-6-methylphenoxy)-4-pyridazinyl benzenesulfonate]",105 to 106
5,"Cc1ccccc1Oc1nnc(Cl)cc1OS(=O)(=O)c1ccc(Cl)cc1 [Compound No. 2198, 6-Chloro-3-(2-methylphenoxy)-4-pyridazinyl 4-chlorobenzenesulfonate]",93 to 94
6,"CC(C)(C)c1ccccc1Oc1nnc(Cl)cc1OS(=O)(=O)c1ccc(Cl)cc1 [Compound No. 2200, 3-(2-tert-Butylphenoxy)-6-chloro-4-pyridazinyl 4-chlorobenzenesulfonate]",83.5 to 84.5
7,"Cc1ccc(S(=O)(=O)Oc2cc(Cl)nnc2Oc2ccccc2C)cc1 [Compound No. 2220, 6-Chloro-3-(2-methylphenoxy)-4-pyridazinyl 4-methylbenzenesulfonate]",102 to 104
8,"Cc1ccc(S(=O)(=O)Oc2cc(Cl)nnc2Oc2ccccc2C(C)C)cc1 [Compound No. 2222, 6-Chloro-3-(2-isopropylphenoxy)-4-pyridazinyl 4-methylbenzenesulfonate]",99 to 100
9,"CCC(C)c1ccccc1Oc1nnc(Cl)cc1OS(=O)(=O)c1ccc(C)cc1 (stereo not shown) [Compound No. 2223, 3-(2-s-Butylphenoxy)-6-chloro-4-pyridazinyl 4-methylbenzenesulfonate]",65 to 66
10,"Cc1ccc(S(=O)(=O)Oc2cc(Cl)nnc2Oc2ccccc2C(C)(C)C)cc1 [Compound No. 2224, 3-(2-tert-Butylphenoxy)-6-chloro-4-pyridazinyl 4-methylbenzenesulfonate]",98 to 99
11,"Cc1ccc(S(=O)(=O)Oc2cc(Cl)nnc2Oc2ccccc2C2CCCCC2)cc1 [Compound No. 2230, 6-Chloro-3-(2-cyclohexylphenoxy)-4-pyridazinyl 4-methylbenzenesulfonate]",120 to 121
12,"Cc1ccc(S(=O)(=O)Oc2cc(Cl)nnc2Oc2ccccc2-c2ccccc2)cc1 [Compound No. 2231, 3-([1,1′-Biphenyl]-2-yloxy)-6-chloro-4-pyridazinyl 4-methylbenzenesulfonate]",106 to 108
13,"COc1ccccc1Oc1nnc(Cl)cc1OS(=O)(=O)c1ccc(C)cc1 [Compound No. 2232, 6-Chloro-3-(2-methoxyphenoxy)-4-pyridazinyl 4-methylbenzenesulfonate]",153 to 157
14,"Cc1ccc(S(=O)(=O)Oc2cc(Cl)nnc2Oc2cccc(C(C)(C)C)c2)cc1 [Compound No. 2235, 3-(3-tert-Butylphenoxy)-6-chloro-4-pyridazinyl 4-methylbenzenesulfonate]",56 to 57
15,"COc1cccc(Oc2nnc(Cl)cc2OS(=O)(=O)c2ccc(C)cc2)c1 [Compound No. 2238, 6-Chloro-3-(3-methoxyphenoxy)-4-pyridazinyl 4-methylbenzenesulfonate]",89 to 90
16,"Cc1ccc(S(=O)(=O)Oc2cc(Cl)nnc2Oc2cccc3ccccc23)cc1 [Compound No. 2240, 6-Chloro-3-(1-naphthyloxy)-4-pyridazinyl 4-methylbenzenesulfonate]",92 to 94
17,"Cc1ccc(S(=O)(=O)Oc2cc(Cl)nnc2Oc2ccc(C(C)(C)C)cc2Br)cc1 [Compound No. 2245, 3-(2-Bromo-4-tert-butylphenoxy)-6-chloro-4-pyridazinyl 4-methylbenzenesulfonate]",110 to 112
18,"Cc1ccc(S(=O)(=O)Oc2cc(Cl)nnc2Oc2ccc(Cl)cc2C)cc1 [Compound No. 2246, 6-Chloro-3-(4-chloro-2-methylphenoxy)-4-pyridazinyl 4-methylbenzenesulfonate]",115 to 116
19,"Cc1ccc(S(=O)(=O)Oc2cc(Cl)nnc2Oc2ccc(C)cc2C)cc1 [Compound No. 2247, 6-Chloro-3-(2,4-dimethylphenoxy)-4-pyridazinyl 4-methylbenzenesulfonate]",80 to 81
20,"Cc1ccc(S(=O)(=O)Oc2cc(Cl)nnc2Oc2ccc(Br)cc2C(C)C)cc1 [Compound No. 2248, 3-(4-Bromo-2-isopropylphenoxy)-6-chloro-4-pyridazinyl 4-methylbenzenesulfonate]",119 to 122
21,"Cc1ccc(S(=O)(=O)Oc2cc(Cl)nnc2Oc2cc(C)ccc2C(C)C)cc1 [Compound No. 2249, 6-Chloro-3-(2-isopropyl-5-methylphenoxy)-4-pyridazinyl 4-methylbenzenesulfonate]",90 to 92
22,"Cc1ccc(S(=O)(=O)Oc2cc(Cl)nnc2Oc2c(C)cccc2C)cc1 [Compound No. 2263, 6-Chloro-3-(2,6-dimethylphenoxy)-4-pyridazinyl 4-methylbenzenesulfonate]",89 to 90
23,"Cc1ccc(S(=O)(=O)Oc2cc(Cl)nnc2Oc2c(C)cccc2C2CC2)cc1 [Compound No. 2265, 6-Chloro-3-(2-cyclopropyl-6-methylphenoxy)-4-pyridazinyl 4-methylbenzenesulfonate]",85 to 87

row,Structure (SMILES),melting point [°C]
1,"Cc1ccccc1Oc1nnc(Cl)cc1OS(=O)(=O)c1ccc([N+](=O)[O-])cc1 [Compound No. 2287, 6-Chloro-3-(2-methylphenoxy)-4-pyridazinyl 4-nitrobenzenesulfonate]",166 to 169
2,"COCc1c(Cl)nnc(Oc2ccccc2C)c1O [Compound No. 2378, 6-Chloro-5-(methoxymethyl)-3-(2-methylphenoxy)-4-pyridazinol]",123 to 126
3,"Cc1ccccc1Oc1nnc(Cl)c(Oc2ccccc2C)c1O [Compound No. 2395, 6-Chloro-3,5-bis(2-methylphenoxy)-4-pyridazinol]",110 to 115
4,"Cc1ccccc1Oc1nnc(Br)cc1O [Compound No. 2411, 6-Bromo-3-(2-methylphenoxy)-4-pyridazinol]",197 to 198
5,"Cc1cc(O)c(Oc2ccccc2C(C)C)nn1 [Compound No. 2418, 3-(2-Isopropylphenoxy)-6-methyl-4-pyridazinol]",259 to 260
6,"Cc1ccccc1Oc1nnc(C2CC2)cc1O [Compound No. 2423, 6-Cyclopropyl-3-(2-methylphenoxy)-4-pyridazinol]",214 to 215
7,"C=Cc1cc(O)c(Oc2ccccc2C)nn1 [Compound No. 2436, 3-(2-Methylphenoxy)-6-vinyl-4-pyridazinol]",195 to 197
8,"CC=Cc1cc(O)c(Oc2ccccc2C)nn1 [Compound No. 2442, 3-(2-Methylphenoxy)-6-(1-propenyl)-4-pyridazinol]",208 to 210
9,"CC(=O)c1cc(O)c(Oc2ccccc2C)nn1 [Compound No. 2455, 1-[5-Hydroxy-6-(2-methylphenoxy)-3-pyridazinyl]ethanone]",182 to 185
10,"Cc1ccccc1Oc1nnc(-c2ccccc2)cc1O [Compound No. 2464, 3-(2-Methylphenoxy)-6-phenyl-4-pyridazinol]",236 to 237
11,"Cc1ccccc1Oc1nnc(-c2cccs2)cc1O [Compound No. 2478, 3-(2-Methylphenoxy)-6-(2-thienyl)-4-pyridazinol]",86 to 87
12,"Cc1ccccc1Oc1cc(O)c(Oc2ccccc2C)nn1 [Compound No. 2492, 3,6-Bis(2-methylphenoxy)-4-pyridazinol]",247 to 250
13,"Oc1cc(Cl)nnc1Oc1ccccc1C1CC1(F)Cl (stereo not shown) [Compound No. 2519, 6-Chloro-3-[2-(2-chloro-2-fluorocyclopropyl)phenoxy]-4-pyridazinol]",175 to 177
14,"CC(C)=Cc1ccccc1Oc1nnc(Cl)cc1O [Compound No. 2540, 6-Chloro-3-[2-(2-methyl-1-propenyl)phenoxy]-4-pyridazinol]",149 to 152
15,"Oc1cccc(Oc2nnc(Cl)cc2O)c1 [Compound No. 2544, 6-Chloro-3-(3-hydroxyphenoxy)-4-pyridazinol]",248 to 251
16,"Oc1cc(Cl)nnc1Oc1cccc(OCc2ccccc2)c1 [Compound No. 2547, 3-[3-(Benzyloxy)phenoxy]-6-chloro-4-pyridazinol]",184 to 185
17,"Oc1cc(Cl)nnc1Oc1ccc(OCc2ccccc2)cc1 [Compound No. 2548, 3-[4-(Benzyloxy)phenoxy]-6-chloro-4-pyridazinol]",170 to 180
18,"COc1cccc(Oc2nnc(Cl)cc2O)c1I [Compound No. 2551, 6-Chloro-3-(2-iodo-3-methoxyphenoxy)-4-pyridazinol]",231 to 234
19,"CC1(C)Cc2c(Oc3nnc(Cl)cc3O)cccc21 [Compound No. 2556, 6-Chloro-3-[(7,7-dimethylbicyclo[4.2.0]octa-1,3,5-trien-2-yl)oxy]-4-pyridazinol]",197 to 199
20,"Cn1ccc2c(Oc3nnc(Cl)cc3O)cccc21 [Compound No. 2565, 6-Chloro-3-[(1-methyl-1H-indol-4-yl)oxy]-4-pyridazinol]",203 to 206
21,"Cn1ccc2cccc(Oc3nnc(Cl)cc3O)c21 [Compound No. 2568, 6-Chloro-3-[(1-methyl-1H-indol-7-yl)oxy]-4-pyridazinol]",219 to 221
22,"CC(=O)c1ccc(Oc2nnc(Cl)cc2O)c(C)c1 [Compound No. 2570, 1-{4-[(6-Chloro-4-hydroxy-3-pyridazinyl)oxy]-3-methylphenyl}ethanone]",182 to 184
23,"CON=C(C)c1ccc(Oc2nnc(Cl)cc2O)c(C)c1 [Compound No. 2571, 1-{4-[(6-Chloro-4-hydroxy-3-pyridazinyl)oxy]-3-methylphenyl}ethanone O-methyloxime]",189 to 192
